In patent US4027039A (priority 1975, dated 1977):
Values joined by “and” are separate entries in the source; they are usually repeats but may differ in a detail not shown here. Equal entries are not always repeated. “Also recorded” adds a separate entry of the source. Structures can show the parent of a compound that is named as a salt. Where two headings read alike, the source gives them in different places.

Tests used:
[1] = system: Influenza PR 8 virus; experiment: Influenza PR 8 in mice, oral; schedule by table; late read day 6 (Table 37), 7 (33, 36), 8 (32, 35, 47), 10 (38); control fraction 18/20 (Table 32), 19/20 (Table 35), else 100%; assay type: in vivo, mouse
[2] = system: Influenza B Massachusetts virus; experiment: Influenza B Mass. in mice, oral; late read day 5 (Table 39), 7 (Table 40), 11 (Tables 61, 65); control fraction 16/20 (Table 61), else 100%; assay type: in vivo, mouse
Protocol: A portion of a commercially available sample of amantadine was recrystallized from isopropanol. The activity of the material against Influenza B Mass. was tested for the sample as obtained, the recrystallized portion, and the mother liquor obtained from recrystallizing the portion.

[3] = system: Herpes virus
[4] = system: viral infections; experiment: Antiviral screening in animals, general statements; conditions: mouse, in vivo
[5] = system: Influenza, Ann Arbor virus; experiment: Influenza Ann Arbor in mice, oral; schedule by table; late read day 5 (Tables 15, 25, 29, 30), 6 (18, 20, 22, 23, 26, 27, 28, 54), 7 (14, 19, 21, 24, 53, 56), 8 (16, 17, 51), 9 (11, 55); assay type: in vivo, mouse
[6] = system: Influenza B Maryland virus; experiment: Influenza B Maryland in mice, oral; assay type: in vivo, mouse
[7] = system: Influenza, Ann Arbor virus; experiment: Influenza Ann Arbor in mice, subcutaneous; late read day 9 (Table 11), 7 (Tables 12, 14), 5 (Table 13); assay type: in vivo, mouse
[8] = system: Vaccinia IHD virus; assay type: in vivo, mouse
[9] = system: Neurovaccinia virus; experiment: Neurovaccinia in mice; conditions: intraperitoneal
[10] = system: Columbia SK Polio virus; assay type: in vivo, mouse; conditions: mouse, in vivo
[11] = system: Vaccinia virus; assay type: in vivo, rabbit; conditions: rabbit, in vivo

NNC(=O)c1ccncc1 [Isoniazid, isoniazid, reference compound]
No. animals surviving after 6-10 days ([1]; total dose 5 μg): 5 | No. animals surviving after 6-10 days ([1]; total dose .0000005 μg): 1 | No. animals surviving when 100% (or given fraction) of controls are dead ([1]; total dose .0000005 μg): 0 | Survivors ([1]; total dose .0000005 μg): 0 | No. animals surviving when 100% (or given fraction) of controls are dead ([1]; total dose .000005 μg): 1 | Survivors ([1]; total dose .000005 μg): 0 | No. animals surviving after 6-10 days ([1]; total dose .00005 μg): 0 | No. animals surviving when 100% (or given fraction) of controls are dead ([1]; total dose .00005 μg): 0 | Survivors ([1]; total dose .00005 μg): 0 | No. animals surviving after 6-10 days ([1]; total dose .0005 μg): 0 | No. animals surviving when 100% (or given fraction) of controls are dead ([1]; total dose .0005 μg): 0 | Survivors ([1]; total dose .0005 μg): 0 | No. animals surviving after 6-10 days ([1]; total dose .005 μg): 1 | No. animals surviving when 100% (or given fraction) of controls are dead ([1]; total dose .005 μg): 1 | Survivors ([1]; total dose .005 μg): 1 | No. animals surviving when 100% (or given fraction) of controls are dead ([1]; total dose .05 μg): 0 | Survivors ([1]; total dose .05 μg): 1 | No. animals surviving when 100% (or given fraction) of controls are dead ([1]; total dose .5 μg): 1 | Survivors ([1]; total dose .5 μg): 1 | No. animals surviving after 5 days (Table 61: 11 days) ([2]; total dose .000005 μg (5 pg)): 3 | No. animals surviving when 100% (Table 61: 16/20) of controls are dead ([2]; total dose .000005 μg (5 pg)): 0 | Survivors ([2]; total dose .000005 μg (5 pg)): 0 | No. animals surviving after 5 days (Table 61: 11 days) ([2]; total dose .00005 μg (50 pg)): 2 | No. animals surviving when 100% (Table 61: 16/20) of controls are dead ([2]; total dose .00005 μg (50 pg)): 1 | Survivors ([2]; total dose .00005 μg (50 pg)): 0 | No. animals surviving after 5 days (Table 61: 11 days) ([2]; total dose .0005 μg (500 pg)): 3 | No. animals surviving when 100% (Table 61: 16/20) of controls are dead ([2]; total dose .0005 μg (500 pg)): 2 | Survivors ([2]; total dose .0005 μg (500 pg)): 0 | No. animals surviving after 5 days (Table 61: 11 days) ([2]; total dose .005 μg (5 ng)): 5 | No. animals surviving when 100% (Table 61: 16/20) of controls are dead ([2]; total dose .005 μg (5 ng)): 1 | Survivors ([2]; total dose .005 μg (5 ng)): 0 | No. animals surviving after 5 days (Table 61: 11 days) ([2]; total dose .05 μg (50 ng)): 3 | No. animals surviving when 100% (Table 61: 16/20) of controls are dead ([2]; total dose .05 μg (50 ng)): 1 | Survivors ([2]; total dose .05 μg (50 ng)): 0 | No. animals surviving after 5 days (Table 61: 11 days) ([2]; total dose .5 μg (500 ng)): 3 | No. animals surviving when 100% (Table 61: 16/20) of controls are dead ([2]; total dose .5 μg (500 ng)): 0 | Survivors ([2]; total dose .5 μg (500 ng)): 0 | No. animals surviving after 6-9 days ([3]; total dose .0000005 μg): 4 | No. animals surviving when 100% (or given fraction) of controls are dead ([3]; total dose .0000005 μg): 1 | Survivors ([3]; total dose .0000005 μg): 1 | No. animals surviving when 100% (or given fraction) of controls are dead ([3]; total dose .005 μg): 1 | No. animals surviving after 6-9 days ([3]; total dose .05 μg): 4 | No. animals surviving when 100% (or given fraction) of controls are dead ([3]; total dose .05 μg): 1 | Survivors ([3]; total dose .05 μg): 1 | activity in words [4]: active | maximum protective effect, treated animals survived [4]: 30%

CN1C(=O)/C(=N\NC(N)=S)c2ccccc21 [Methisazone, 1-methylindole-2,3-dione, 3-thiosemicarbazone, reference compound]
No. animals surviving after 5-9 days ([5]; total dose 5 μg): 4 | Survivors ([5]; total dose 5 μg): 0 | No. animals surviving after 5-9 days ([5]; total dose 50 μg): 3 | Survivors ([5]; total dose 50 μg): 0 | No. animals surviving after 5-9 days ([5]; total dose .00005 μg): 6 | Survivors ([5]; total dose .00005 μg): 0 | No. animals surviving after 5-9 days ([5]; total dose .0005 μg): 5 | Survivors ([5]; total dose .0005 μg): 0 | No. animals surviving after 5-9 days ([5]; total dose .005 μg): 5 | Survivors ([5]; total dose .005 μg): 0 | No. animals surviving after 5-9 days ([5]; total dose .05 μg): 4 | Survivors ([5]; total dose .05 μg): 0 | No. animals surviving after 5-9 days ([5]; total dose .5 μg): 6 | Survivors ([5]; total dose .5 μg): 0 | activity in words ([6]; mouse, in vivo): active | No. animals surviving when 18/20 of controls are dead ([6]; total dose 6 ng): 4 | Survivors ([6]; total dose 6 ng): 2 | No. animals surviving when 18/20 of controls are dead ([6]; total dose 60 ng): 4 | Survivors ([6]; total dose 60 ng): 2 | No. animals surviving when 18/20 of controls are dead ([6]; total dose 600 ng): 2 | Survivors ([6]; total dose 600 ng): 2 | No. animals surviving when 18/20 of controls are dead ([6]; total dose 6 μg): 4 | Survivors ([6]; total dose 6 μg): 1 | No. animals surviving after 6-9 days ([3]; total dose .0000005 μg): 4 and 3 | No. animals surviving after 6-9 days ([3]; total dose .05 μg): 1 | No. animals surviving when 100% (or given fraction) of controls are dead ([3]; total dose .05 μg): 0 | Survivors ([3]; total dose .05 μg): 0 | activity in words [4]: active against pox virus infections of mice; also recorded: activity

NN [hydrazine, hydrate]
No. animals surviving after 5-9 days ([5]; total dose 5 μg): 4 | Survivors ([5]; total dose 5 μg): 0 | No. animals surviving after 5-9 days ([5]; total dose 50 μg): 4 | Survivors ([5]; total dose 50 μg): 0 | No. animals surviving after 5-9 days ([5]; total dose 500 μg): 5 | Survivors ([5]; total dose 500 μg): 0 | No. animals surviving after 5-9 days ([5]; total dose .00005 μg): 6 | Survivors ([5]; total dose .00005 μg): 0 | No. animals surviving after 5-9 days ([5]; total dose .0005 μg): 6 | Survivors ([5]; total dose .0005 μg): 0 | No. animals surviving after 5-9 days ([5]; total dose .005 μg): 3 | Survivors ([5]; total dose .005 μg): 0 | No. animals surviving after 5-9 days ([5]; total dose .05 μg): 3 | Survivors ([5]; total dose .05 μg): 1 | No. animals surviving after 5-9 days ([5]; total dose .5 μg): 6 | Survivors ([5]; total dose .5 μg): 0 | No. animals surviving after 5-9 days ([7]; total dose 5 μg): 6 | Survivors ([7]; total dose 5 μg, hydrate): 3 | No. animals surviving after 5-9 days ([7]; total dose 50 μg, hydrate): 7 and 4 | Survivors ([7]; total dose 500 μg): 0 | No. animals surviving after 5-9 days ([7]; total dose 500 μg, hydrate): 6 and 3 | No. animals surviving after 5-9 days ([7]; total dose .00005 μg): 1 | Survivors ([7]; total dose .00005 μg): 0 | No. animals surviving after 5-9 days ([7]; total dose .0005 μg, hydrate): 5 and 7 | No. animals surviving after 5-9 days ([7]; total dose .005 μg, hydrate): 3 and 4 | No. animals surviving after 5-9 days ([7]; total dose .05 μg, hydrate): 4 and 6 | No. animals surviving after 5-9 days ([7]; total dose .5 μg, hydrate): 7 and 5 | No. animals surviving after 6-10 days ([1]; total dose 5 μg): 1 | No. animals surviving when 100% (or given fraction) of controls are dead ([1]; total dose 5 μg): 0 | Survivors ([1]; total dose 5 μg): 0 | No. animals surviving after 6-10 days ([1]; total dose 50 μg): 1 | No. animals surviving when 100% (or given fraction) of controls are dead ([1]; total dose 50 μg): 0 | Survivors ([1]; total dose 50 μg): 0 | No. animals surviving after 6-10 days ([1]; total dose .000005 μg): 4 | No. animals surviving when 100% (or given fraction) of controls are dead ([1]; total dose .000005 μg, hydrate): 4 | Survivors ([1]; total dose .0005 μg, hydrate): 1 | No. animals surviving when 100% (or given fraction) of controls are dead ([1]; total dose .5 μg): 1 | Survivors ([1]; total dose .5 μg): 1 | No. animals surviving after 6-10 days ([1]; total dose .5 μg, hydrate): 1 | activity in words [4]: active

NNC(N)=O [semicarbazide, hydrochloride]
Statistical Significance of Tail Lesions ([8]; 10 ng, day 6): < .01 | Statistical Significance of Tail Lesions ([8]; 10 ng, day 11): < .05 | Statistical Significance of Tail Lesions ([8]; 10 ng, day 12): < .05 | Statistical Significance of Tail Lesions ([8]; 10 ng, day 17): < .05 | Statistical Significance of Tail Lesions ([8]; 1 μg, day 6): < .01 | Statistical Significance of Tail Lesions ([8]; 1 μg, day 8): < .01 | Statistical Significance of Tail Lesions ([8]; 1 μg, day 10): < .01 | Statistical Significance of Tail Lesions ([8]; 1 μg, day 11): < .01 | Statistical Significance of Tail Lesions ([8]; 1 μg, day 12): < .01 | Statistical Significance of Tail Lesions ([8]; 1 μg, day 14): < .01 | Statistical Significance of Tail Lesions ([8]; 1 μg, day 17): < .01 | Statistical Significance of Tail Lesions ([8]; 1 μg, day 21): < .05 | Statistical Significance of Tail Lesions ([8]; 10 [μg], day 7): < .01 | Statistical Significance of Tail Lesions ([8]; 10 [μg], day 10): < .05 | Statistical Significance of Tail Lesions ([8]; 10 [μg], day 11): < .01 | Statistical Significance of Tail Lesions ([8]; 10 [μg], day 12): < .01 | Statistical Significance of Tail Lesions ([8]; 10 [μg], day 14): < .01 | Statistical Significance of Tail Lesions ([8]; 10 [μg], day 17): < .01 | Statistical Significance of Tail Lesions ([8]; 10 [μg], day 21): < .05 | Statistical Significance of Tail Lesions ([8]; 100 [ng], day 7): < .05 | Statistical Significance of Tail Lesions ([8]; 100 [ng], day 11): < .05 | Statistical Significance of Tail Lesions ([8]; 100 [ng], day 12): < .05 | Statistical Significance of Tail Lesions ([8]; 100 [ng], day 14): < .05 | Statistical Significance of Tail Lesions ([8]; 100 [ng], day 17): < .01 | Statistical Significance of Tail Lesions ([8]; 100 [ng], day 21): < .01 | No. animals surviving after 6-9 days ([3]; total dose 5 μg, hydrochloride): 5 | No. animals surviving after 6 days ([9]; total dose .0075 μg): 1/2 | Survivors ([9]; total dose .75 μg): 0 | activity in words [4]: effective

CCC(C)=NNC(N)=S [thiosemicarbazone]
instances of statistically significant geometric mean survival time [10]: two | effect on pox formation [11]: very striking effects of the drug on the pox formation; also recorded: highly significant diminution of pox formation
